According to PMC5831858, “Pharmacological characterisation of CR6086, a potent prostaglandin E2 receptor 4 antagonist, as a new potential disease-modifying anti-rheumatic drug” (Arthritis Research & Therapy, 2018):
Like-named read-outs stand apart in the source and are kept apart here.

Tests used:
human EP4 receptor = target: T1, human EP4 receptor (Homo sapiens, UniProt P35408); assay: EP4 radioligand binding assay ([^3H]PGE2), human receptor; settings: for Ki: read-out: Ki CR6086
T1 construct: expressed in transfected cells
T1 sequence (P35408 whole entry): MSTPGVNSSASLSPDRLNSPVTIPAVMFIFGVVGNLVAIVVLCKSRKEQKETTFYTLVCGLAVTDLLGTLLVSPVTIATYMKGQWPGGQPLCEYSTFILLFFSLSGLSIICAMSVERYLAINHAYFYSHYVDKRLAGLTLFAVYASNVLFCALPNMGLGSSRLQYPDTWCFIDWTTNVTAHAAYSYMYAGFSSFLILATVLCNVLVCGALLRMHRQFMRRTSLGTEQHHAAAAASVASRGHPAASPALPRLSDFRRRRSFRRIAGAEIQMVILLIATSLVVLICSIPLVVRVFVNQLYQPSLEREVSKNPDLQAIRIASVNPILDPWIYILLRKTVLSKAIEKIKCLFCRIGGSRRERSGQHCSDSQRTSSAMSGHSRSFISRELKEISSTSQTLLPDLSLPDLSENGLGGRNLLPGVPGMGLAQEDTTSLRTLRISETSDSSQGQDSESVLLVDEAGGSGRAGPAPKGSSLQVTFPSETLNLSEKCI
Source text: The complementary DNA (cDNA) clone of the human EP4 receptor (hEP4R; NM_000958.2) was obtained from Thermo Fisher Scientific (Ultimate ORF Clone Collection, clone ID IOH46525; Waltham, MA, USA). The coding sequence was subcloned in expression vector pcDNATM6.2/V5-DEST by using Invitrogen Gateway technology (Thermo Fisher Scientific). Human embryonic kidney cells 293 (HEK293) were obtained from the American Type Culture Collection (ATCC; Manassas, VA, USA) and transfected with expression vector for hEP4R according to the method described in the FuGENE 6 Transfection Reagent technical manual (Promega, Madison, WI, USA). The clones overexpressing the protein were selected for Blasticidin S HCl (Thermo Fisher Scientific) resistance. The selected clone was grown in DMEM containing 10% FBS and 10 μg/ml Blasticidin S HCl (selection medium) at 37 °C in a humidified atmosphere of 5% CO2 in air.
Membranes expressing the human EP4 receptor were prepared from stably transfected HEK293 cell line. Cells were grown adherent in DMEM with GlutaMAX-I (Thermo Fisher Scientific) containing 10% FBS and Blasticidin 10 μg/ml at 37 °C in a humidified atmosphere with 5% CO2. Membranes expressing the mouse or rat EP4 receptor were prepared from transiently transfected HEK293 cells. Cells were grown adherent in DMEM with GlutaMAX-I containing 10% FBS at 37 °C in a humidified atmosphere with 5% CO2. For the preparation of all cell membranes, culture medium was aspirated from 150-cm^2 flasks into which cells were seeded. Cell monolayers were then washed with 10 ml of hypotonic lysis buffer (Tris 5 mM + ethylenediaminetetraacetic acid [EDTA] 5 mM, pH 7.4), detached, and lysed with 10 ml + 10 ml of lysis buffer by mechanical scraping. Lysates were vortexed for 30 seconds and centrifuged at 40,000 × g for 22 minutes at 4 °C. Pellets were stored at −80 °C until use. Protein content of the cell membrane suspension was determined using bovine serum albumin (BSA) as a standard.
Experimental procedures were performed according to the method of Abramovitz et al.. [^3H]PGE2 (PerkinElmer, Waltham, MA, USA) binding assays for recombinant EP4 receptors were performed in 10 mM 2-(N-morpholino)ethanesulphonic acid-KOH buffer, pH 6, containing 10 mM MgCl2 and 1 mM CaCl2. Ten micrograms of protein from membrane fractions were incubated in a total volume of 0.1 ml with 1–1.5 nM [^3H]PGE2. To determine the total binding or non-specific binding, 1% dimethyl sulphoxide (DMSO) or 1 μM PGE2 was added to the reaction mixture. Incubation was carried out in 96-well multi-well plates for 90 minutes at room temperature prior to separation of the bound and free radioligand by rapid filtration on glass-fibred filters (UniFilter-96 GF/B; PerkinElmer) pre-soaked in 0.3% polyethylenimine. […] The residual [^3H]PGE2 binding was determined using a solid scintillation counter (TopCount; PerkinElmer) after at least 1 h of stabilisation. In saturation binding studies, isotherm-binding curves generated with six to eight different concentrations of [^3H]PGE2 (from 0.5 to 25 nM) were evaluated. […]
Specific binding to the receptors was defined as the difference between total binding and non-specific binding, as determined in the presence of an excess of unlabelled ligand. Binding isotherm curves were analysed to determine the equilibrium binding parameters, affinity (dissociation constant [Kd]) and maximal binding capacity of labelled ligand. Competition curves were analysed to assess the half-maximal inhibitory concentration (IC50). […]

α1 (non-selective) = assay: Adrenergic receptor α1 binding; settings: [^3H]prazosin, Rat cerebral cortex
M2 = M2 (Homo sapiens, UniProt P08172); assay: Muscarinic acetylcholine receptor M2 binding; settings: [^3H]AF-DX 384, Human recombinant CHO cells, read-out: CR6086 Activity at 10µM
Sequence of M2 (P08172 whole entry): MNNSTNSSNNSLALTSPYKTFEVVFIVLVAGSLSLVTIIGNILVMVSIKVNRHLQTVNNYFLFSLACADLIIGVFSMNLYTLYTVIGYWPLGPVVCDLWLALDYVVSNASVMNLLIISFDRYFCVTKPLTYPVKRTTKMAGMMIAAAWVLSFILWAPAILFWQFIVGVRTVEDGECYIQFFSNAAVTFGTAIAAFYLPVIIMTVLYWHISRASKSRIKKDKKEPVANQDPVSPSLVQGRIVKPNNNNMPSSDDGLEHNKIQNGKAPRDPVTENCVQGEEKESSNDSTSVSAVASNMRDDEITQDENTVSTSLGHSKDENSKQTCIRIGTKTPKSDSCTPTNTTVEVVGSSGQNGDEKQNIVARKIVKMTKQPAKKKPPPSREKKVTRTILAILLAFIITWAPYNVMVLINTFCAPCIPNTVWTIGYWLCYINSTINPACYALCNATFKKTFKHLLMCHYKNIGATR

M4 = M4 (Homo sapiens, UniProt P08173); assay: Muscarinic acetylcholine receptor M4 binding; settings: [^3H]4-DAMP, Human recombinant CHO cells, read-out: CR6086 Activity at 10µM
Sequence of M4 (P08173 whole entry): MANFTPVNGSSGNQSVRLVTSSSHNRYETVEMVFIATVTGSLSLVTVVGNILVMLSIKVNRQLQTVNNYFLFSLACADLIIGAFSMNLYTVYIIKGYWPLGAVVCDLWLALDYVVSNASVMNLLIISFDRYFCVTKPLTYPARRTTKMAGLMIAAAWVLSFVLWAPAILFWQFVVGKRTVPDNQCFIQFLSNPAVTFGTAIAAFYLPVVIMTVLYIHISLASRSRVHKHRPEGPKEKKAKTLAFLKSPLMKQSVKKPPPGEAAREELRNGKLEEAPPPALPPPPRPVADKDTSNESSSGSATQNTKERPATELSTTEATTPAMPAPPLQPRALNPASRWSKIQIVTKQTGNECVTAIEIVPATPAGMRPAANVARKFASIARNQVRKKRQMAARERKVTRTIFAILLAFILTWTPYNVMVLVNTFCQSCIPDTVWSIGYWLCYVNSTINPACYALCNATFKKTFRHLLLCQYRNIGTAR

5-HT6 = 5-HT6 (Homo sapiens, UniProt P50406); assay: Serotonin receptor 5-HT6 binding; settings: [^3H]LSD, Human recombinant CHO cells, read-out: CR6086 Activity at 10µM
Sequence of 5-HT6 (P50406 whole entry): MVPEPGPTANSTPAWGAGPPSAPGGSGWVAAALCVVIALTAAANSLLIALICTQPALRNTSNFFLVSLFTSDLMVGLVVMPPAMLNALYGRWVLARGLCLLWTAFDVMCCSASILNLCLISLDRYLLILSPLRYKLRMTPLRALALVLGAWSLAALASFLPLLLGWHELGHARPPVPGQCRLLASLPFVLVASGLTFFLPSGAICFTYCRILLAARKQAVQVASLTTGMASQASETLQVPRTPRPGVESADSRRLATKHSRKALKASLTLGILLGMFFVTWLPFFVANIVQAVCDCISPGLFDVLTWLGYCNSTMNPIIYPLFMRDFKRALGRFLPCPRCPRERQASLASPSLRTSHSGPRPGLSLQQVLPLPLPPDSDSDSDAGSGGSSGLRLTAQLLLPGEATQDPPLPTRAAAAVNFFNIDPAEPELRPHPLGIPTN

PCP = PCP receptor binding; settings: [^3H]TCP, Rat cerebral cortex
AT2 = AT2 (Homo sapiens, UniProt P50052); assay: Angiotensin receptor AT2 binding; settings: [^125I]CGP 42112A, Human recombinant HEK-293 cells, read-out: CR6086 Activity at 10µM
Sequence of AT2 (P50052 whole entry): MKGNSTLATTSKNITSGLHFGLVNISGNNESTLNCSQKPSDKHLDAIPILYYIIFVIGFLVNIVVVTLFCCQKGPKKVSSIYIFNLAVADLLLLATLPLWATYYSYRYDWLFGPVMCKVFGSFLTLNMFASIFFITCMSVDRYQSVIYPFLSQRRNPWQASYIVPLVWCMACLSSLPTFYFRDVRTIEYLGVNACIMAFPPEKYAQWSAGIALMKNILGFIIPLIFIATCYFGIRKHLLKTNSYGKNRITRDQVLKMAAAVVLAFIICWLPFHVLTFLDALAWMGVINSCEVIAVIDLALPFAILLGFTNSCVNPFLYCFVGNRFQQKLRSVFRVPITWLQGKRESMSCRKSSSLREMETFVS

GAL1 = GAL1 (Homo sapiens, UniProt P47211); assay: Galanin receptor GAL1 binding; settings: [^125I]galanin, Human recombinant HEK-293 cells, read-out: CR6086 Activity at 10µM
Sequence of GAL1 (P47211 whole entry): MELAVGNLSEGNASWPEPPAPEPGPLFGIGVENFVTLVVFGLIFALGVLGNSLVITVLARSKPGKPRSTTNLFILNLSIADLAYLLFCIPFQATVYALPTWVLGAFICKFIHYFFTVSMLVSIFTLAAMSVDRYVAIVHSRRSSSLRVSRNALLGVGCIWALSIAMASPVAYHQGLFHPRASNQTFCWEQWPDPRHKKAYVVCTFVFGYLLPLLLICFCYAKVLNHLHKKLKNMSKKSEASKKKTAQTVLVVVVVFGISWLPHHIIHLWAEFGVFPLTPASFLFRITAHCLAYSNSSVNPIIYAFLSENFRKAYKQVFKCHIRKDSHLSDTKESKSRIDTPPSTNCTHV

PDGF = PDGF receptor binding; settings: [^125I]PDGF BB, Balb/c 3T3 cells
ER = assay: Nuclear receptor ER binding; settings: [^3H]estradiol, MCF-7 cells
[1] = equilibrium binding, CR6086 50 nM

Structure (SMILES): O=C([O-])c1ccc(C2(NC(=O)[C@H]3CC4(CCN3Cc3ccc(C(F)(F)F)cc3)CC4)CC2)cc1.[Na+] [CR6086, Sodium (R)-4-(1-(6-(4-(trifluoromethyl)benzyl)-6-azaspiro[2.5]octane-5-carboxamido)cyclopropyl)benzoate]
- Ki (human EP4 receptor; [^3H]PGE2 displacement, HEK293 membranes, absence of BSA): 16.6 nM
- Ki (human EP4 receptor; after addition of 0.5% BSA in the assay buffer): 15.5 nM
- change in [^3H]PGE2 affinity in the presence of CR6086 (human EP4 receptor; [1]): fourfold decrease
- change in maximal binding capacity of [^3H]PGE2 (human EP4 receptor; [1]): +20%
- type of antagonism (human EP4 receptor; [1]): competitive antagonist
- CR6086 Activity at 10µM (α1 (non-selective)): IN (IN = < 20% displacement or inhibition (all tables))
- inhibition at 10 µM (M2): < 20%
- inhibition at 10 µM (M4): < 20%
- inhibition at 10 µM (5-HT6): < 20%
- CR6086 Activity at 10µM (PCP): IN (IN = < 20% displacement or inhibition (all tables))
- inhibition at 10 µM (AT2): < 20%
- inhibition at 10 µM (GAL1): < 20%
- CR6086 Activity at 10µM (PDGF): IN (IN = < 20% displacement or inhibition (all tables))
- CR6086 Activity at 10µM (ER): IN (IN = < 20% displacement or inhibition (all tables))
